In PubChem BioAssay AID1963847 (Molecular Pharmacology Branch, DTP, NCI, 2024):

Test system: 415267-285-R-J2-PDC complex spheroid viability
Assay: Anticancer human tumor 415267-285-R-J2-PDC patient-derived breast carcinoma cell line growth inhibition [POLQ]
Settings: for IC50: curve of first compound; for viability, T/C: stronger effect = lower value
Protocol: Multicellular complex tumor spheroid response to Polymerase (POL) inhibitors (novobiocin, ART-558, RP6685) in combination with a variety of drugs and investigational agents in selected tumor cell lines
The POL inhibitors (novobiocin, ART-558, and RP6685) were evaluated both individually and in combination with standard of care and investigational anticancer small molecules within a complex spheroid model of solid tumors. . Complex spheroids include a stromal component modeled by human endothelial cells (HUVEC) and fibroblasts modeled by human mesenchymal stem cells (MSCs). The concentration ranges selected for each drug and investigational agent were based upon clinically achievable concentrations if the clinical Cmax of the agent was known.
Compounds. The drugs and investigational agents: novobiocin (NSC847541), ART-558 (NSC835418), RP-6685 (NSC848927), peposertib (NSC802822), ceralasertib (NSC780249), elimusertib (NSC800525), camonsertib (NSC841442), AZD-1390 (NSC803789), olaparib (NSC753686), talazoparib (NSC767125), rucaparib (NSC756644), sotorasib (NSC818433), MRTX-1133 (NSC836407), SN-38 (NSC673596), topotecan (NSC609699), epotoside (NSC141540), doxorubicin (NSC123127), gemcitabine (NSC613327), 5-fluorouracil (NSC19893), paclitaxel (NSC125973), vemurafenib (NSC761431), MSA-2 (NSC828583), SN-011 (NSC837082), adavosertib (NSC754352), prexasertib (NSC758257), carboplatin (NSC241240) and oxaliplatin (NSC266046), were obtained from the National Cancer Institute (NCI) Developmental Therapeutics Program Chemical Repository (21). The FDA-approved anticancer drug set is available from the Developmental Therapeutics Program at https://dtp.cancer.gov/organization/dscb/obtaining/. […] The stock solutions were prepared in dimethyl sulfoxide (DMSO, Sigma-Aldrich, St. Louis, MO, cat. D2650), except for the platinum compounds which were prepared in saline (Quality Biological, Gaithersburg, MD, cat. 114-055-101), at 800-fold the tested concentration and stored at -70 degrees C prior to their use. All drugs and investigational agents were tested over a range starting from a high concentration at or near the clinical Cmax and decreasing in half-log increments. If the clinical Cmax for an agent had not been determined, the highest concentration tested was 10 microM, except for SN-38, which was tested at a high concentration of 1 microM.
Cell Culture. All cells were maintained in an incubator at 37 degrees C and 5% CO2 with 95% humidity. The PDC lines were cultured according to standard operating procedures established by the NCI PDMR (https://pdmr.cancer.gov). Table 3 of the manuscript, lists the cell lines along with the number of the three cell types plated to form the mct-spheroids and media for tumor cell growth. After thawing, all PDC lines, except 997537-175-T-J1-PDC and 415267-285-R-J2-PDC, were cultured in Matrigel-coated flasks prepared with a working solution of 1X Ham's F-12 nutrient mix, without supplementation (Thermo Fisher Scientific, cat. 11765054), 100 U/mL penicillin-streptomycin (Thermo Fisher Scientific, cat. 15140122), and 2.5% Matrigel (Corning Inc., Corning, NY, cat. 354248) for the first three passages. The two PDC lines 997537-175-T-J1-PDC and 415267-285-R-J2-PDC were cultured on uncoated flasks. The 857933-349-R-J2-PDC line was cultured in 6C/Colon 1B media containing advanced DMEM/F-12 (Thermo Fisher Scientific, cat. 12634028), 10 mM HEPES (Thermo Fisher Scientific, cat. 15630080), 1X GlutaMAX supplement (Thermo Fisher Scientific, cat. 35050061), 0.1 mg/mL primocin (InvivoGen, San Diego, CA, cat. ant-pm-2), 10% defined fetal bovine serum, heat inactivated (HyClone Laboratories Inc., Logan, UT, cat. SH30070.03HI), 50% L-WRN conditioned media (ATCC, cat. CRL-3276), 1.25 mM N-Acetyl-L-cysteine (Sigma-Aldrich, cat. A9165), 10 mM nicotinamide (Sigma-Aldrich, cat. N0636), 1X B-27 supplement (Thermo Fisher Scientific, cat. 17504044), 1X N-2 supplement (Thermo Fisher Scientific, cat. […]

[1] = second compound 0.0316 µM, first compound 0.00316 µM
[2] = second compound 0.0316 µM, first compound 0.01 µM
[3] = second compound 0.0316 µM, first compound 0.0316 µM
[4] = second compound 0.0316 µM, first compound 0.1 µM
[5] = second compound 0.0316 µM, first compound 0.316 µM
[6] = second compound 0.0316 µM, first compound 1 µM
[7] = second compound 0.1 µM, first compound 0.00316 µM
[8] = second compound 0.1 µM, first compound 0.01 µM
[9] = second compound 0.1 µM, first compound 0.0316 µM
[10] = second compound 0.1 µM, first compound 0.1 µM
[11] = second compound 0.1 µM, first compound 0.316 µM
[12] = second compound 0.1 µM, first compound 1 µM
[13] = second compound 0.316 µM, first compound 0.00316 µM
[14] = second compound 0.316 µM, first compound 0.01 µM
[15] = second compound 0.316 µM, first compound 0.0316 µM
[16] = second compound 0.316 µM, first compound 0.1 µM
[17] = second compound 0.316 µM, first compound 0.316 µM
[18] = second compound 0.316 µM, first compound 1 µM
[19] = second compound 1 µM, first compound 0.00316 µM
[20] = second compound 1 µM, first compound 0.01 µM
[21] = second compound 1 µM, first compound 0.0316 µM
[22] = second compound 1 µM, first compound 0.1 µM
[23] = second compound 1 µM, first compound 0.316 µM
[24] = second compound 1 µM, first compound 1 µM
[25] = second compound 3.16 µM, first compound 0.00316 µM
[26] = second compound 3.16 µM, first compound 0.01 µM
[27] = second compound 3.16 µM, first compound 0.0316 µM
[28] = second compound 3.16 µM, first compound 0.1 µM
[29] = second compound 3.16 µM, first compound 0.316 µM
[30] = second compound 3.16 µM, first compound 1 µM
[31] = second compound 10 µM, first compound 0.00316 µM
[32] = second compound 10 µM, first compound 0.01 µM
[33] = second compound 10 µM, first compound 0.0316 µM
[34] = second compound 10 µM, first compound 0.1 µM
[35] = second compound 10 µM, first compound 0.316 µM
[36] = second compound 10 µM, first compound 1 µM
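Further: spheroids exposed to compounds for one week before readout.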
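Wherever viability, T/C is given: luminescence used as stand-in measure of viable cells; 100% = DMSO vehicle control viability.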

Question: With `C=CCn1c(=O)c2cnc(Nc3ccc(N4CCN(C)CC4)cc3)nc2n1-c1cccc(C(C)(C)O)n1` + Cc1cccc(N(C)C(=O)C2C(O)CCN2c2nc(C)cc(C(F)(F)F)c2C#N)c1 as the compound, how does the IC50 (second compound 0.0316 µM) read?
Answer: 444 nM

Question: What about the IC50 (second compound 0.1 µM) of the same compound?
Answer: 475 nM

Question: And the IC50 (second compound 0.316 µM)?
Answer: 460 nM

Question: What about the IC50 (second compound 1 µM) of the same compound?
Answer: 486 nM

Question: And the IC50 (second compound 3.16 µM)?
Answer: 452 nM

Question: What about the IC50 (second compound 10 µM) of the same compound?
Answer: 425 nM

Question: What about the viability, T/C [1] of the same compound?
Answer: 103%

Question: And the viability, T/C [2]?
Answer: 102%

Question: And the viability, T/C [3]?
Answer: 104%

Question: What about the viability, T/C [4] of the same compound?
Answer: 116%

Question: What about the viability, T/C [5] of the same compound?
Answer: 67.6%

Question: And the viability, T/C [6]?
Answer: 8%

Question: What about the viability, T/C [7] of the same compound?
Answer: 96.6%

Question: And the viability, T/C [8]?
Answer: 102%

Question: What about the viability, T/C [9] of the same compound?
Answer: 106%

Question: And the viability, T/C [10]?
Answer: 112%

Question: What about the viability, T/C [11] of the same compound?
Answer: 73.6%

Question: And the viability, T/C [12]?
Answer: 6.74%

Question: What about the viability, T/C [13] of the same compound?
Answer: 103%

Question: And the viability, T/C [14]?
Answer: 105%

Question: And the viability, T/C [15]?
Answer: 109%

Question: What about the viability, T/C [16] of the same compound?
Answer: 94.5%

Question: What about the viability, T/C [17] of the same compound?
Answer: 71%

Question: What about the viability, T/C [18] of the same compound?
Answer: 7.48%

Question: And the viability, T/C [19]?
Answer: 103%

Question: And the viability, T/C [20]?
Answer: 103%

Question: And the viability, T/C [21]?
Answer: 107%

Question: What about the viability, T/C [22] of the same compound?
Answer: 108%

Question: What about the viability, T/C [23] of the same compound?
Answer: 76.1%

Question: And the viability, T/C [24]?
Answer: 6.25%

Question: What about the viability, T/C [25] of the same compound?
Answer: 102%

Question: What about the viability, T/C [26] of the same compound?
Answer: 109%

Question: And the viability, T/C [27]?
Answer: 108%

Question: What about the viability, T/C [28] of the same compound?
Answer: 123%

Question: What about the viability, T/C [29] of the same compound?
Answer: 69%

Question: And the viability, T/C [30]?
Answer: 7.86%

Question: What about the viability, T/C [31] of the same compound?
Answer: 108%

Question: And the viability, T/C [32]?
Answer: 106%

Question: What about the viability, T/C [33] of the same compound?
Answer: 122%

Question: What about the viability, T/C [34] of the same compound?
Answer: 114%

Question: And the viability, T/C [35]?
Answer: 64.1%

Question: What about the viability, T/C [36] of the same compound?
Answer: 9.37%

Question: With `COc1cccc(OCCCN)c1-c1cc(Nc2cnc(C#N)cn2)n[nH]1` + COC1C(OC(N)=O)C(O)C(Oc2ccc3c(O)c(NC(=O)c4ccc(O)c(CC=C(C)C)c4)c(=O)oc3c2C)OC1(C)C as the compound, how does the IC50 (second compound 0.0316 µM) read?
Answer: < 3.16 nM

Question: And the IC50 (second compound 0.1 µM)?
Answer: < 3.16 nM

Question: What about the IC50 (second compound 0.316 µM) of the same compound?
Answer: < 3.16 nM

Question: And the IC50 (second compound 1 µM)?
Answer: 3.68 nM

Question: What about the IC50 (second compound 3.16 µM) of the same compound?
Answer: 3.6 nM

Question: And the IC50 (second compound 10 µM)?
Answer: 3.84 nM

Question: And the viability, T/C [1]?
Answer: 41.4%

Question: What about the viability, T/C [2] of the same compound?
Answer: 14.1%

Question: What about the viability, T/C [3] of the same compound?
Answer: 7.52%

Question: And the viability, T/C [4]?
Answer: 8.68%

Question: What about the viability, T/C [5] of the same compound?
Answer: 6.7%

Question: What about the viability, T/C [6] of the same compound?
Answer: 4.81%

Question: And the viability, T/C [7]?
Answer: 40.2%

Question: And the viability, T/C [8]?
Answer: 10.2%

Question: And the viability, T/C [9]?
Answer: 7.65%

Question: And the viability, T/C [10]?
Answer: 6.8%

Question: And the viability, T/C [11]?
Answer: 6.5%

Question: What about the viability, T/C [12] of the same compound?
Answer: 5.69%

Question: And the viability, T/C [13]?
Answer: 46.9%

Question: What about the viability, T/C [14] of the same compound?
Answer: 8.13%

Question: And the viability, T/C [15]?
Answer: 8.41%

Question: What about the viability, T/C [16] of the same compound?
Answer: 6.89%

Question: What about the viability, T/C [17] of the same compound?
Answer: 7.31%

Question: And the viability, T/C [18]?
Answer: 4.55%

Question: What about the viability, T/C [19] of the same compound?
Answer: 56.2%

Question: What about the viability, T/C [20] of the same compound?
Answer: 9.03%

Question: What about the viability, T/C [21] of the same compound?
Answer: 7.11%

Question: What about the viability, T/C [22] of the same compound?
Answer: 7.02%

Question: And the viability, T/C [23]?
Answer: 5.8%

Question: What about the viability, T/C [24] of the same compound?
Answer: 4.41%

Question: What about the viability, T/C [25] of the same compound?
Answer: 55.3%

Question: And the viability, T/C [26]?
Answer: 8.65%

Question: And the viability, T/C [27]?
Answer: 7.11%

Question: What about the viability, T/C [28] of the same compound?
Answer: 7.79%

Question: What about the viability, T/C [29] of the same compound?
Answer: 5.22%

Question: What about the viability, T/C [30] of the same compound?
Answer: 5.51%

Question: What about the viability, T/C [31] of the same compound?
Answer: 58.6%

Question: What about the viability, T/C [32] of the same compound?
Answer: 7.45%

Question: And the viability, T/C [33]?
Answer: 7.04%

Question: What about the viability, T/C [34] of the same compound?
Answer: 6.59%

Question: What about the viability, T/C [35] of the same compound?
Answer: 6.37%

Question: And the viability, T/C [36]?
Answer: 5.49%
